Measurements published in patent US20220213092A1, “BICYCLIC PYRAZOLE BRUTON'S TYROSINE KINASE INHIBITORS” (AbbVie Inc., priority 2020, published 2022).

biological target: T1, BTK (Homo sapiens, UniProt Q06187); assay: BTK kinase electrophoretic mobility shift assay (MSA); assay type: biochemical; details: not given
T1 construct: purchased Nanosyn, Santa Clara, Calif; host or cells: 293HEK
Description: Kinase activity, unless otherwise indicated, was measured in vitro using an electrophoretic mobility shift assay (MSA). The phosphorylation of a peptide substrate by BTK and other kinases was measured. The kinase reactions were assembled in a total volume of 25 μL per well in 384 well plates. The following was added to each well: compound buffer (or control); enzyme buffer; and substrate buffer, as further described below.
The terminated reactions were analyzed using a 12 channel LABCHIP® 3000 microfluidic detection instrument (available from Caliper Life Sciences, Waltham, Mass.). […] Change in the relative fluorescence intensity of the substrate and product peaks was the parameter measured, reflecting enzyme activity. In the presence of an inhibitor, the ratio between product and substrate was altered. The signal of the product decreased, while the signal of the substrate increased. Capillary electrophoregrams (RDA acquisition files) were analyzed using HTS Well Analyzer software (available from Caliper Life Sciences, Waltham, Mass.).
Activity in each sample was determined as the product to sum ratio (PSR): P/(S+P), where P was the peak height of the product peptide and S was the peak height of the substrate peptide. For each compound, enzyme activity was measured at various concentrations (12 concentrations of compound spaced by 3× dilution intervals). Negative control samples (00 inhibition in the absence of inhibitor) and positive control samples (10000 inhibition, in the presence of 20 mM EDTA) were assembled in replicates of four and were used to calculate 00 inhibition values for each inhibitor at each concentration. Percent inhibition (Pinh) was determined using following equation: Pinh=(PSR0%−PSRinh)/(PSR0%−PSR100%)*100, where PSRinh was the product sum ratio in the presence of inhibitor, PSR0% was the average product sum ratio in the absence of inhibitor and PSR100% was the average product sum ratio in 100%−inhibition control samples.
The IC50 values of inhibitors were determined by 4 parameter sigmoidal dose response model fitting of the inhibition curves (Pinh versus inhibitor concentration) using XLfit® 4 software (available from IDBS, Boston, Mass.).

T1 sequence (Q06187 whole entry): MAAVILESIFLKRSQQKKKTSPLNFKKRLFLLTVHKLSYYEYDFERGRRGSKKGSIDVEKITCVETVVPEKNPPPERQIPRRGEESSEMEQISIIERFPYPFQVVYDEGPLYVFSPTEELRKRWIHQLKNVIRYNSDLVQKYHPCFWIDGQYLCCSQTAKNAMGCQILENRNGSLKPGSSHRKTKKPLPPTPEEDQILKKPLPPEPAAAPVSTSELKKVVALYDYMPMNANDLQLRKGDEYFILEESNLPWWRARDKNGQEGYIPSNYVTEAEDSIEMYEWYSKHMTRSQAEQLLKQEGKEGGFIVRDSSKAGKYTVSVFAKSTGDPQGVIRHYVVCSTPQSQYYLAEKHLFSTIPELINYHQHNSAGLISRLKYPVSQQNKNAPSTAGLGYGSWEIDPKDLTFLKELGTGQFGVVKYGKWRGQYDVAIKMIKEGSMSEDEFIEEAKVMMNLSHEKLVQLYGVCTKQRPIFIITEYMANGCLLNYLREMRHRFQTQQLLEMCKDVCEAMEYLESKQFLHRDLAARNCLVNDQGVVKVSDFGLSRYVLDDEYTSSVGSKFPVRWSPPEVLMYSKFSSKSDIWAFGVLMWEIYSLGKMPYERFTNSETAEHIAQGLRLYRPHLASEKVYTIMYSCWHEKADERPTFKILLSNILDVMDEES

Structure (SMILES)	IC50
NC(=O)c1c2c(nn1-c1ccc(Oc3ccccc3)cc1)C(N1CCN(C(=O)CF)CC1)CCN2 (centres unmarked) [Example 49, 7-[4-(fluoroacetyl)piperazin-1-yl]-2-(4-phenoxyphenyl)-4,5,6,7-tetrahydro-2H-pyrazolo[4,3-b]pyridine-3-carboxamide]	398 nM

same assay, conditions: 50 μM ATP, 0.5 nM BTK enzyme (Nanosyn-293HEK, WT), 3 hours at 25° C.; all examples except 50, 51, 62 and 63; read-out: BTK IC50

Structure (SMILES)	IC50
CC#CC(=O)N1CCC(N2CCNc3c2nn(-c2ccc(Oc4ccccc4)cc2)c3C(N)=O)CC1 [Example 19, 7-[1-(but-2-ynoyl)piperidin-4-yl]-2-(4-phenoxyphenyl)-4,5,6,7-tetrahydro-2H-pyrazolo[3,4-b]pyrazine-3-carboxamide]	8.61 nM
CC#CC(=O)N1CCC(C2CCNc3c2nn(-c2ccc(Oc4ccccc4)cc2)c3C(N)=O)CC1 (centres unmarked) [Example 2, 7-[1-(but-2-ynoyl)piperidin-4-yl]-2-(4-phenoxyphenyl)-4,5,6,7-tetrahydro-2H-pyrazolo[4,3-b]pyridine-3-carboxamide]	4.07 nM
C=CC(=O)N1CCN(C2CCNc3c2nn(-c2ccc(Oc4ccccc4)cc2)c3C(N)=O)C[C@H]1C (stereo partly drawn) [Example 42, 7-[(3R)-3-methyl-4-(prop-2-enoyl)piperazin-1-yl]-2-(4-phenoxyphenyl)-4,5,6,7-tetrahydro-2H-pyrazolo[4,3-b]pyridine-3-carboxamide]	11.8 nM
C=CC(=O)N1C[C@@H](C)N(C2CCNc3c2nn(-c2ccc(Oc4ccccc4)cc2)c3C(N)=O)C[C@@H]1C (stereo partly drawn) [Example 21, 7-[(2R,5S)-2,5-dimethyl-4-(prop-2-enoyl)piperazin-1-yl]-2-(4-phenoxyphenyl)-4,5,6,7-tetrahydro-2H-pyrazolo[4,3-b]pyridine-3-carboxamide]	919 nM
C=CC(=O)N1CCN(C2CCNc3c2nn(-c2ccc(Oc4ccc(F)cc4)cc2)c3C(N)=O)CC1 (centres unmarked) [Example 56, 2-[4-(4-fluorophenoxy)phenyl]-7-[4-(prop-2-enoyl)piperazin-1-yl]-4,5,6,7-tetrahydro-2H-pyrazolo[4,3-b]pyridine-3-carboxamide]	14.8 nM
NC(=O)/C=C/C(=O)N1CCN([C@@H]2CCNc3c2nn(-c2ccc(Oc4ccccc4)cc2)c3C(N)=O)CC1 [Example 48, (7R)-7-{4-[(2E)-4-amino-4-oxobut-2-enoyl]piperazin-1-yl}-2-(4-phenoxyphenyl)-4,5,6,7-tetrahydro-2H-pyrazolo[4,3-b]pyridine-3-carboxamide]	51.1 nM
C=CC(=O)N1CCN([C@@H]2CCNc3c2nn(-c2ccc(Oc4ccccc4)cc2)c3C(N)=O)[C@@H](C)C1 (single isomer, unassigned) [Example 32]	18.1 nM
C=CC(=O)N1CCN([C@H]2CCNc3c2nn(-c2ccc(Oc4ccc(C)cc4)cc2)c3C(N)=O)CC1 [Example 96, (7S)-2-[4-(4-methylphenoxy)phenyl]-7-[4-(prop-2-enoyl)piperazin-1-yl]-4,5,6,7-tetrahydro-2H-pyrazolo[4,3-b]pyridine-3-carboxamide]	59.2 nM
C=CC(=O)N1CCC(C2CCNc3c2nn(-c2ccc(Oc4ccc(F)cc4F)cc2)c3C(N)=O)CC1 (centres unmarked) [Example 13, 2-[4-(2,4-difluorophenoxy)phenyl]-7-[1-(prop-2-enoyl)piperidin-4-yl]-4,5,6,7-tetrahydro-2H-pyrazolo[4,3-b]pyridine-3-carboxamide]	1.84 nM
C=CC(=O)N1CCN([C@H]2CCNc3c2nn(-c2ccc(Oc4ccccc4)cc2)c3C(N)=O)CC1 [Example 7, (7S)-2-(4-phenoxyphenyl)-7-[4-(prop-2-enoyl)piperazin-1-yl]-4,5,6,7-tetrahydro-2H-pyrazolo[4,3-b]pyridine-3-carboxamide]	11.5 nM
C=CC(=O)N1CCC(C2CCNc3c2nn(-c2ccc(Oc4ccccc4)cc2F)c3C(N)=O)CC1 (centres unmarked) [Example 37, 2-(2-fluoro-4-phenoxyphenyl)-7-[1-(prop-2-enoyl)piperidin-4-yl]-4,5,6,7-tetrahydro-2H-pyrazolo[4,3-b]pyridine-3-carboxamide]	2.48 nM
C=CC(=O)N1CCC(C2CCNc3c2nn(-c2ccc(Oc4ccc(F)cc4)cc2)c3C(N)=O)CC1 (centres unmarked) [Example 11, 2-[4-(4-fluorophenoxy)phenyl]-7-[1-(prop-2-enoyl)piperidin-4-yl]-4,5,6,7-tetrahydro-2H-pyrazolo[4,3-b]pyridine-3-carboxamide]	2.25 nM
C=CC(=O)N1CCN([C@H]2CCNc3c2nn(-c2ccc(Oc4ccccc4C(F)(F)F)cc2)c3C(N)=O)CC1 [Example 61, (7S)-7-[4-(prop-2-enoyl)piperazin-1-yl]-2-{4-[2-(trifluoromethyl)phenoxy]phenyl}-4,5,6,7-tetrahydro-2H-pyrazolo[4,3-b]pyridine-3-carboxamide]	27.2 nM
C=CC(=O)N1CCN(C2CCNc3c2nn(-c2ccc(Oc4ccccc4F)cc2)c3C(N)=O)CC1 (centres unmarked) [Example 38, 2-[4-(2-fluorophenoxy)phenyl]-7-[4-(prop-2-enoyl)piperazin-1-yl]-4,5,6,7-tetrahydro-2H-pyrazolo[4,3-b]pyridine-3-carboxamide]	3.58 nM
C=CC(=O)N1CCN(C2CCNc3c2nn(-c2ccc(Oc4ccccc4)cc2)c3C(N)=O)CC12CCC2 (centres unmarked) [Example 26, 2-(4-phenoxyphenyl)-7-[5-(prop-2-enoyl)-5,8-diazaspiro[3.5]nonan-8-yl]-4,5,6,7-tetrahydro-2H-pyrazolo[4,3-b]pyridine-3-carboxamide]	2.16 nM
C=CC(=O)N1CCC[C@@H]([C@@H]2CCNc3c2nn(-c2ccc(Oc4ccccc4)cc2)c3C(N)=O)C1 (racemic) [Example 9, (7RS)-2-(4-phenoxyphenyl)-7-[(3RS)-1-(prop-2-enoyl)piperidin-3-yl]-4,5,6,7-tetrahydro-2H-pyrazolo[4,3-b]pyridine-3-carboxamide]	13.8 nM
CN(C)C/C=C/C(=O)N1CCN([C@@H]2CCNc3c2nn(-c2ccc(Oc4ccccc4)cc2)c3C(N)=O)CC1 [Example 46, (7R)-7-{4-[(2E)-4-(dimethylamino)but-2-enoyl]piperazin-1-yl}-2-(4-phenoxyphenyl)-4,5,6,7-tetrahydro-2H-pyrazolo[4,3-b]pyridine-3-carboxamide]	76.7 nM
C=CC(=O)N1CCN([C@H]2CCNc3c2nn(-c2ccc(Oc4cccc(OC)c4)cc2)c3C(N)=O)CC1 [Example 98, (7S)-2-[4-(3-methoxyphenoxy)phenyl]-7-[4-(prop-2-enoyl)piperazin-1-yl]-4,5,6,7-tetrahydro-2H-pyrazolo[4,3-b]pyridine-3-carboxamide]	14.4 nM
C=CC(=O)N1CCN(C2CCNc3c2nn(-c2ccc(Oc4ccccc4)cc2)c3C(N)=O)C[C@H]1C(C)C (stereo partly drawn) [Example 20, 2-(4-phenoxyphenyl)-7-[(3R)-3-(propan-2-yl)-4-(prop-2-enoyl)piperazin-1-yl]-4,5,6,7-tetrahydro-2H-pyrazolo[4,3-b]pyridine-3-carboxamide]	3.17 nM
C=CC(=O)N1CCC([C@@H]2CCNc3c2nn(-c2ccc(Oc4ccccc4)cc2)c3C(N)=O)CC1 [Example 5, (7S)-2-(4-phenoxyphenyl)-7-[1-(prop-2-enoyl)piperidin-4-yl]-4,5,6,7-tetrahydro-2H-pyrazolo[4,3-b]pyridine-3-carboxamide]	10.5 nM
C=CC(=O)N1CCN(C2CCNc3c2nn(-c2ccc(Oc4cc(F)cc(F)c4)cc2)c3C(N)=O)CC1 (centres unmarked) [Example 55, 2-[4-(3,5-difluorophenoxy)phenyl]-7-[4-(prop-2-enoyl)piperazin-1-yl]-4,5,6,7-tetrahydro-2H-pyrazolo[4,3-b]pyridine-3-carboxamide]	7.63 nM
C=CC(=O)N1CCC(C2CCNc3c2nn(-c2ccc(Oc4ccc(OC)cc4)cc2)c3C(N)=O)CC1 (centres unmarked) [Example 17, 2-[4-(4-methoxyphenoxy)phenyl]-7-[1-(prop-2-enoyl)piperidin-4-yl]-4,5,6,7-tetrahydro-2H-pyrazolo[4,3-b]pyridine-3-carboxamide]	2.72 nM
C=CC(=O)N1CCC(C2CCNc3c2nn(-c2ccc(Oc4cccc(C(F)(F)F)c4)cc2)c3C(N)=O)CC1 (centres unmarked) [Example 23, 7-[1-(prop-2-enoyl)piperidin-4-yl]-2-{4-[3-(trifluoromethyl)phenoxy]phenyl}-4,5,6,7-tetrahydro-2H-pyrazolo[4,3-b]pyridine-3-carboxamide]	2.03 nM
C=CC(=O)N1CCCN(C2CCNc3c2nn(-c2ccc(Oc4ccccc4)cc2)c3C(N)=O)CC1 (centres unmarked) [Example 25, trifluoroacetic acid-2-(4-phenoxyphenyl)-7-[4-(prop-2-enoyl)-1,4-diazepan-1-yl]-4,5,6,7-tetrahydro-2H-pyrazolo[4,3-b]pyridine-3-carboxamide (1/1)]	29.4 nM
C=CC(=O)N1CCN([C@H]2CCNc3c2nn(-c2ccc(Oc4ccccc4OC)cc2)c3C(N)=O)CC1 [Example 97, (7S)-2-[4-(2-methoxyphenoxy)phenyl]-7-[4-(prop-2-enoyl)piperazin-1-yl]-4,5,6,7-tetrahydro-2H-pyrazolo[4,3-b]pyridine-3-carboxamide]	120 nM
